Where a name gives a salt, the structure may show the parent alone. Read-outs that look alike come from different tables or passages of the source.
Experiments:
[1] = biological target: T1, Human gelatinase-A (MMP-2) (Homo sapiens, UniProt P08253); test: MMP inhibition, internal fluorescence quenching method (MCA peptide substrate); assay type: biochemical
T1 sequence (P08253 110-660): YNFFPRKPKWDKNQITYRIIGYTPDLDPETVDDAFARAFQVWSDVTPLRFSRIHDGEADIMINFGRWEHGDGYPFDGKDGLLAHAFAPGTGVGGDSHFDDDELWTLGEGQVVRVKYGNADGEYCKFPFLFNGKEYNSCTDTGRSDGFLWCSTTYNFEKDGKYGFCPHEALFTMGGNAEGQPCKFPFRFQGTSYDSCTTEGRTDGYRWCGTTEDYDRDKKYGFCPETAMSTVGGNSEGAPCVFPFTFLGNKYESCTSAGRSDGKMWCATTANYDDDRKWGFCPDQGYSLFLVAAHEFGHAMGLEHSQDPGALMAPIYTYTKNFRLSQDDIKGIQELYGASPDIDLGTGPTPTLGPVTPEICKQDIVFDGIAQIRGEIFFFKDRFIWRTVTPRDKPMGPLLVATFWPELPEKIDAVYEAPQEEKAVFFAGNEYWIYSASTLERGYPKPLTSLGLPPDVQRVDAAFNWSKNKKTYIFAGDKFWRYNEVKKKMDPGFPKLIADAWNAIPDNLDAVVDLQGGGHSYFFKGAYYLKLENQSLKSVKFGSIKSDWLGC
Procedure: (§1) The inhibitory activity of the compounds of the present invention was evaluated in vitro against one or more of the MMP enzymes (gelatinases, collagenases, stromelysins) using the internal fluorescence quenching method. The assay method is based on the hydrolysis of the MMP substrate, MCA-Pro-Leu-Gly-Leu-DPA-Ala—Arg-NH2 at 37° C. (see Knight, C. G. et al., FEBS Lett. 296:263-266, 1992). The enzymes cleave at the Gly-Leu bond removing the internally quenching DPA group. The release of the highly fluorescent peptide MCA-Pro-Leu was monitored with a LS50 Perkin Elmer fluorimeter equipped with a Peltier-thermostated cell holder using an excitation wavelength of 326 nm and an emission wavelenght of 398 nm. Slis were set at 14/14. Proper determination of steady-state rates of substrate cleavage required a preincubation at 37° C. of 15 minutes to allow for complete equilibration of the enzyme-inhibitor complex. […] Rates of substrate hydrolysis, expressed as fluorescence arbitrary units per minute, were calculated by least-square analysis of the steady-state linear progression curves. The steady-state rates were fitted to the Michaelis equation describing competitive inhibition; in particular, Ki,app were determined by fining the data to the tight-binding equation of Morrison (Biochem. Biophys. Acta, 185:269-286, 1969) by non-linear methods.
(§2) Human gelatinase-A (MMP-2) was obtained as penzyme (72 kDa) and was activated with 1 mM 4-aminophenylmercuric acetate for 30 min at 37° C. immediately prior to use. The inhibitor was diluted into the assay from a stock solution in 100% DMSO, and controls substituted an equal volume of DMSO so that the final DMSO concentration from inhibitor and substrate dilution in all assays was 1%. The concentration of MMP-2 was 19.2 picoM. For compounds of formula (I) where X is —OH, the assay buffer was 50 mM Tris/HCl pH 6.5 containing 150 mM NaCl, 10 mM CaCl2, 0.01 mM ZnCl2 and 0.05% Brij35 (Protocol A). Other conditions were as stated above.
The compounds of formula (I) where X is —NHOH were tested against MMP-2 and MMP-1 under the conditions stated above, but the assay solution was buffered at pH 7.4 (Protocol B).

[2] = biological target: T2, Human fibroblast collagenase (MMP-1) (Homo sapiens, UniProt P03956); test: as above; assay type: biochemical
T2 sequence (P03956 101-269): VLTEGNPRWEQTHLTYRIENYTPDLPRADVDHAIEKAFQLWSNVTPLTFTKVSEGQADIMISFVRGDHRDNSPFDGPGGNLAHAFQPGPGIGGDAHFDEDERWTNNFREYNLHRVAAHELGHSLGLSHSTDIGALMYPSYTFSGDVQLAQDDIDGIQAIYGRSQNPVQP
Procedure: as §1, §2
Assay conditions were the same as above, but enzyme concentration was 200 picoM.

[3] = Protocol A: Tris/HCl pH 6.5, 37° C., MMP-2 19.2 picoM, substrate 3 μM, carboxylic acids, read-out: MMP-2 Ki
[4] = Protocol A: pH 6.5, 37° C., enzyme 200 picoM, substrate 3 μM, carboxylic acids, read-out: MMP-1 Ki
[5] = Protocol B: pH 7.4, 37° C., hydroxamic acids (X is —NHOH), read-out: MMP-1 Ki (picoM)
[6] = Protocol B: pH 7.4, 37° C., hydroxamic acids (X is —NHOH), read-out: MMP-2 Ki (picoM)

| Structure (SMILES) | Ki [1, 3] [nM] | Ki [2, 4] [nM] | also measured |
| --- | --- | --- | --- |
| CC(=O)Nc1ccc(OCC(CS(=O)(=O)c2ccc(-c3ccc(Cl)cc3)cc2)C(=O)O)cc1 (centres unmarked) [Example 30, 3-[(4′-chloro[1,1′-biphenyl]-4-yl)sulfonyl]-2-[(4-acetylaminophenoxy)methyl]propanoic acid] | 46 | 19600 | – |
| CN1C(=O)N(CC(CS(=O)(=O)c2ccc(-c3ccc(Cl)cc3)cc2)C(=O)NO)C(=O)C1(C)C (centres unmarked) [Example 8, 3-[(4′-chloro[1,1′-biphenyl]-4-yl)sulfonyl]-N-hydroxy-2-[(3,4,4-trimethyl-2,5-dioxo-1-imidazolidinyl)methyl]propanamide] | – | – | Ki [2, 5]: 26.8 nM; Ki [1, 6]: 0.107 nM |
| O=C(NO)C(CSc1ccccc1)CS(=O)(=O)c1ccc(-c2ccc(Cl)cc2)cc1 (centres unmarked) [Example 4, 3-[(4′-chloro[1,1′-biphenyl]-4-yl)sulfonyl]-N-hydroxy-2-[(phenylsulfanyl)methyl]propanamide] | – | – | Ki [2, 5]: 149 nM; Ki [1, 6]: 0.159 nM |
| N#Cc1ccc(-c2ccc(S(=O)(=O)CC(COc3ccccc3)C(=O)O)cc2)cc1 (centres unmarked) [Example 29, 3-[(4′-cyano[1,1′-biphenyl]-4-yl)sulfonyl]-2-(phenoxymethyl)propanoic acid, sodium salt] | 21.5 | – | – |
| Cc1cc(SCC(CS(=O)(=O)c2ccc(-c3ccc(Cl)cc3)cc2)C(=O)O)nc(C)n1 (centres unmarked) [Example 26, 3-[(4′-chloro[1,1′-biphenyl]-4-yl)sulfonyl]-2-[[(2,6-dimethyl-4-pyrimidinyl)sulfanyl]methyl]propanoic acid] | 26.8 | – | melting point: 170 to 172 °C |
| O=C(O)C(CSc1nc2ccccc2[nH]1)CS(=O)(=O)c1ccc(-c2ccc(Cl)cc2)cc1 (centres unmarked) [Example 37, 3-[(4′-chloro[1,1′-biphenyl]-4-yl)sulfonyl]-2-[(1H-benzimidazol-2-yl-sulfanyl)methyl]-propanoic acid] | 18.2 | – | – |
| O=C(O)C(COc1ccccc1)CS(=O)(=O)c1ccc(-c2ccc(Cl)cc2)cc1 (centres unmarked) [Example 17, 3-[(4′-Chloro[1,1′-biphenyl]-4-yl)sulfonyl]-2-(phenoxymethyl)propanoic acid, sodium salt] | 9.2 | 14700 | – |
| O=C(O)C(CSc1ccccc1)CS(=O)(=O)c1ccc(-c2ccc(Cl)cc2)cc1 (single isomer, unassigned) [3, Isomer 2] | 660 | – | – |
| O=C(O)C(COc1ccccc1CO)CS(=O)(=O)c1ccc(-c2ccc(Cl)cc2)cc1 (centres unmarked) [Example 33, 3-[(4′-chloro[1,1′-biphenyl]-4-yl)sulfonyl]-2-[[2-(hydroxymethyl)phenoxy]-methyl]propanoic acid] | 15 | – | – |
| O=C(O)C(CSc1ccc(O)cc1)CS(=O)(=O)c1ccc(-c2ccc(Cl)cc2)cc1 (centres unmarked) [Example 16, 3-[(4′-chloro[1,1′-biphenyl]-4-yl)sulfonyl]-2-[[(4-hydroxyphenyl)sulfanyl]methyl]propanoic acid] | 9 | 9700 | – |
| CCCCN1C(=O)CN(CC(CS(=O)(=O)c2ccc(-c3ccc(Cl)cc3)cc2)C(=O)O)C1=O (centres unmarked) [Example 18, 3-[(4′-chloro[1,1′-biphenyl]-4-yl)sulfonyl]-2-[(3-butyl-2,4-dioxo-1-imidazolidinyl)methyl]propanoic acid] | 7.8 | – | – |
| CN1C(=O)N(CC(CS(=O)(=O)c2ccc(-c3ccc(Cl)cc3)cc2)C(=O)O)C(=O)C1(C)C (single isomer, unassigned) [6, Isomer 2] | 50 | – | – |
| CCCCN1CC(=O)N(CC(CS(=O)(=O)c2ccc(-c3ccc(Cl)cc3)cc2)C(=O)O)C1=O (centres unmarked) [Example 13] | 12 | 5290 | – |
| Cn1ccnc1SCC(CS(=O)(=O)c1ccc(-c2ccc(Cl)cc2)cc1)C(=O)O (centres unmarked) [Example 25, 3-[(4′-chloro[1,1′-biphenyl]-4-yl)sulfonyl]-2-[[(1-methyl-1H-imidazol-2-yl)sulfanyl]methyl]propanoic acid] | 16 | – | – |
| O=C(Nc1ccc(S(=O)(=O)CC(CSc2cccs2)C(=O)O)cc1)c1ccccc1 (centres unmarked) [Example 14, 3-[[4-(Benzoylamino)phenyl]sulfonyl]-2-[(2-thienylsulfanyl)methyl]propanoic acid] | 8 | – | – |
| N#Cc1ccc(-c2ccc(S(=O)(=O)CC(CSc3ccccc3)C(=O)O)cc2)cc1 (centres unmarked) [Example 19, 3-[(4′-cyano[1,1′-biphenyl]-4-yl)sulfonyl]-2-[(phenylsulfanyl)methyl]propanoic acid] | 17 | – | – |
| Cc1nnc(SCC(CS(=O)(=O)c2ccc(-c3ccc(Cl)cc3)cc2)C(=O)O)s1 (centres unmarked) [Example 36, 3-[(4′-chloro[1,1′-biphenyl]-4-yl)sulfonyl]-2-[[(S-methyl-1,3,4-thiadiazol-2-yl)sulfanyl]methyl]propanoic acid.] | 33.4 | – | – |
| CC1(C)NC(=O)N(CC(CS(=O)(=O)c2ccc(-c3ccc(Cl)cc3)cc2)C(=O)NO)C1=O (centres unmarked) [Example 10, 3-[(4′-chloro[1,1′-biphenyl]-4-yl)sulfonyl]-N-hydroxy-2-[(4,4-dimethyl-2,5-dioxo-1-imidazolidinyl)methyl]propanamide] | – | – | Ki [2, 5]: 12.6 nM; Ki [1, 6]: 0.05 nM |

Further compounds by falling Ki [1, 3], results first:

| Ki [1, 3] [nM] | Ki [2, 4] [nM] | Structure (SMILES) | also measured |
| --- | --- | --- | --- |
| 7 | 81100 | O=C(Nc1ccc(S(=O)(=O)CC(CSc2ccccc2)C(=O)O)cc1)c1ccccc1 (centres unmarked) [Example 15, 3-[[4-(Benzoylamino)phenyl]sulfonyl]-2-[(phenylsulfanyl)methyl]propanoic acid] | – |
| 6 | – | O=C(O)C(CSc1ccccc1)CS(=O)(=O)c1ccc(-c2ccc(Cl)cc2)cc1 (single isomer, unassigned) [3, Isomer 1] | – |
| 5.5 | > 2000 | CN1C(=O)N(CC(CS(=O)(=O)c2ccc(-c3ccc(Cl)cc3)cc2)C(=O)O)C(=O)C1(C)C (racemic) [Example 5, 3-[(4′-chloro[1,1′-biphenyl]-4-yl)sulfonyl]-2-[(3,4,4-trimethyl-2,5-dioxo-1-imidazolidinyl)methyl]propanoic acid] | – |
| 4.8 | 67500 | N#Cc1ccc(C(=O)Nc2ccc(S(=O)(=O)CC(COc3ccccc3)C(=O)O)cc2)cc1 (centres unmarked) [Example 35, 3-[[4-[(4-cyanobenzoyl)amino]phenyl]sulfonyl]-2-(phenoxymethyl)propanoic acid] | – |
| 3.9 | 6290 | O=C(O)C(CSc1ccccn1)CS(=O)(=O)c1ccc(-c2ccc(Cl)cc2)cc1 (centres unmarked) [Example 20, 3-[(4′-chloro[1,1′-biphenyl]-4-yl)sulfonyl]-2-[(2-pyridinylsulfanyl)methyl]propanoic acid] | – |
| 3.7 | 3600 | CN1C(=O)N(CC(CS(=O)(=O)c2ccc(-c3ccc(Cl)cc3)cc2)C(=O)O)C(=O)C1(C)C (single isomer, unassigned) [6, Isomer 1] | – |
| 2.4 | 54000 | O=C(Nc1ccc(S(=O)(=O)CC(COc2ccccc2)C(=O)O)cc1)c1ccc(Cl)cc1 (centres unmarked) [Example 34, 3-[[4-[(4-chlorobenzoyl)amino]phenyl]sulfonyl]-2-(phenoxymethyl)propanoic acid] | – |
| 1.4 | 50600 | O=C(Nc1ccc(S(=O)(=O)CC(CSc2ccccc2)C(=O)O)cc1)c1ccc(Cl)cc1 (centres unmarked) [Example 21, 3-[[4-[(4-chlorobenzoyl)amino]phenyl]sulfonyl]-2-[(phenylsulfanyl)methyl]-propanoic acid] | – |

— patent US6765003B1, “3-Arylsulfonyl-2 (substituted methyl) propanoic acid derivatives as matrix metalloproteinase inhibitors” (Pharmacia Italia, SpA, priority 1999, dated 2004)
